According to patent US10597388B2, “Pyridazinone herbicides” (FMC CORPORATION, priority 2014, dated 2020):
Like-named read-outs stand apart in the source and are kept apart here.

Legend:
Type in all cases: in vivo
[1] = tested on: barnyardgrass (Echinochloa crus-galli); assay: Test A greenhouse herbicide test, pre- and postemergence; settings: for pest or weed control at 1000 g/ha: Echinochloa crus-galli, 240 h, 1000 g ai/ha
Procedure, shortened: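 Seeds in loam–sand blend received a preemergence directed soil spray; plants at 2–10 cm, one- to two-leaf stage, received postemergence sprays. Compounds in a non-phytotoxic solvent with surfactant. After about 10 d in a greenhouse, injury rated visually versus untreated controls on a 0–100 scale (100 = complete control).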

[2] = tested on: blackgrass (Alopecurus myosuroides); assay: Test A greenhouse herbicide test, postemergence; settings: for Blackgrass plant response rating: 0 to 100 scale, 0 is no effect, 100 is complete control
Procedure, shortened: (§1)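 Pot-grown plants (loam soil/sand blend), 2–10 cm tall at the one- to two-leaf stage, received postemergence sprays of formulated test chemical. After about 10 d in the greenhouse, injury was rated visually against untreated controls on a 0 (no effect) to 100 (complete control) scale.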

[3] = tested on: galium (catchweed bedstraw, Galium aparine); assay: Test A greenhouse herbicide test, postemergence; settings: for Galium plant response rating: 0 to 100 scale, 0 is no effect, 100 is complete control
Procedure, shortened: as §1

[4] = tested on: barnyardgrass (Echinochloa crus-galli); assay: Test B flooded paddy test; settings: 250 g ai/ha, Flood, visual rating on scale of 0 to 100 where 0 is no effect and 100 is complete control, 13 to 15 d after treatment; for pest or weed control at 250 g/ha: Echinochloa crus-galli, 360 h, read-out: Plant response rating, Barnyardgrass
Procedure, shortened: (§2)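 Plants grown to the 2-leaf stage. At treatment, pots were flooded to 3 cm above the soil, compound was applied directly to the paddy water, and that depth was held throughout. After 13 to 15 d in the greenhouse, response was rated visually against controls on a 0 (no effect) to 100 (complete control) scale.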

[5] = tested on: ducksalad (Heteranthera limosa); assay: Test B flooded paddy test; settings: 250 g ai/ha, Flood, visual rating on scale of 0 to 100 where 0 is no effect and 100 is complete control, 13 to 15 d after treatment; for pest or weed control at 250 g/ha: Heteranthera limosa, 360 h, read-out: Plant response rating, Ducksalad
Procedure, shortened: as §2

rice (Oryza sativa) = assay: Test B flooded paddy test; settings: 250 g ai/ha, Flood, visual rating on scale of 0 to 100 where 0 is no effect and 100 is complete control, 13 to 15 d after treatment; for plant injury at 250 g/ha: Oryza sativa, 360 h, read-out: Plant response rating, Rice
Procedure, shortened: as §2

[6] = tested on: sedge, umbrella (small-flower umbrella sedge, Cyperus difformis); assay: Test B flooded paddy test; settings: 250 g ai/ha, Flood, visual rating on scale of 0 to 100 where 0 is no effect and 100 is complete control, 13 to 15 d after treatment; for pest or weed control at 250 g/ha: Cyperus difformis, 360 h, read-out: Plant response rating, Sedge, Umbrella
Procedure, shortened: as §2

[7] = tested on: chickweed (common chickweed, Stellaria media); assay: Test C greenhouse herbicide test, postemergence
Procedure, shortened: (§3)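 Plants grown in potting mix of peat moss, vermiculite, wetting agent and starter nutrients were sprayed postemergence at 2 to 18 cm height (1- to 4-leaf stage). After 13 to 15 d in the greenhouse, injury was visually rated against untreated controls on a 0–100 scale (0 no effect, 100 complete control).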

kochia (Kochia scoparia) = assay: Test C greenhouse herbicide test, postemergence
Procedure, shortened: as §3

[8] = tested on: oat, wild (wild oat, Avena fatua); assay: Test C greenhouse herbicide test, postemergence
Procedure, shortened: as §3

[9] = Postemergence, 125 g ai/ha, visual rating after approx. 10 d, 0 to 100 scale (0 no effect, 100 complete control)
[10] = Postemergence, 500 g ai/ha, 0 to 100 scale, 0 is no effect, 100 is complete control
[11] = Preemergence, 125 g ai/ha, 0 to 100 scale where 0 is no effect and 100 is complete control
[12] = Preemergence, 500 g ai/ha, 0 to 100 scale, 0 no effect, 100 complete control
[13] = 125 g ai/ha, visual rating after approx. 10 d, 0 to 100 scale (0 no effect, 100 complete control)
[14] = Postemergence, 31 g ai/ha, 0 to 100 scale (0 no effect, 100 complete control)
[15] = Postemergence, 125 g ai/ha, scale 0 to 100, 0 is no effect, 100 is complete control
[16] = Postemergence, 250 g ai/ha, scale 0 to 100, 0 no effect, 100 complete control, 13 to 15 d
[17] = postemergence, 62 g ai/ha, scale 0 to 100, 0 no effect, 100 complete control
[18] = post-emergence, Postemergence, 0 to 100 scale, 0 is no effect, 100 is complete control, read-out: Barnyardgrass plant response rating
[19] = pre-emergence, Preemergence, 0 to 100 scale, 0 no effect, 100 complete control, read-out: Plant response rating, Barnyardgrass
[20] = Postemergence, 125 g ai/ha, 0 to 100 scale where 0 is no effect and 100 is complete control
[21] = Postemergence, 500 g ai/ha, visual rating after approx. 10 d, 0 to 100 scale (0 no effect, 100 complete control)
[22] = Preemergence, 500 g ai/ha, 0 to 100 scale where 0 is no effect and 100 is complete control
[23] = 125 g ai/ha, 0 to 100 scale where 0 is no effect and 100 is complete control
[24] = 500 g ai/ha, visual rating after approx. 10 d, 0 to 100 scale (0 no effect, 100 complete control)
[25] = Postemergence, 31 g ai/ha, scale 0 to 100 (0 no effect, 100 complete control)
[26] = Postemergence, 62 g ai/ha, 0 to 100 scale (0 no effect, 100 complete control)
[27] = postemergence, 125 g ai/ha, scale 0 to 100, 0 no effect, 100 complete control
[28] = Postemergence, 8 g ai/ha, scale 0 to 100 (0 no effect, 100 complete control)
[29] = Postemergence, 16 g ai/ha, scale 0 to 100 (0 no effect, 100 complete control)

| SMILES | Barnyardgrass plant response rating [1, 11] | Plant response rating, Barnyardgrass [4] | Plant response rating, Ducksalad [5] | Plant response rating, Rice (rice (Oryza sativa)) | Plant response rating, Sedge, Umbrella [6] | Chickweed plant response rating [7, 14] | Plant response rating, Chickweed [7, 15] | Plant response rating, Chickweed [7, 16] | Chickweed plant response rating [7, 17] | Kochia plant response rating (kochia (Kochia scoparia); [14]) | Plant response rating, Kochia (kochia (Kochia scoparia); [15]) | Plant response rating, Kochia (kochia (Kochia scoparia); [16]) | Kochia plant response rating (kochia (Kochia scoparia); [17]) | Oat, Wild plant response rating [8, 14] | Plant response rating, Oat, Wild [8, 15] | Plant response rating, Oat, Wild [8, 16] | Oat, Wild plant response rating [8, 17] | Plant response rating, Barnyardgrass [1, 20] | Plant response rating, Barnyardgrass [1, 21] | Plant response rating, Barnyardgrass [1, 22] | also measured |
| --- | --- | --- | --- | --- | --- | --- | --- | --- | --- | --- | --- | --- | --- | --- | --- | --- | --- | --- | --- | --- | --- |
| Cc1cc(C)c2ccccc2c1-c1c(O)c(C)nn(C)c1=O [Compound 21] | 90 | 70 | 0 | 55 | 65 | 95 | 100 | 100 | 100 | 80 | 95 | 100 | 90 | 90 | 98 | 100 | 98 |  |  |  | Plant response rating, Barnyardgrass [1, 9]: 90; Barnyardgrass plant response rating [1, 10]: 90; Plant response rating, Barnyardgrass [1, 12]: 100; Plant response rating, Blackgrass [2, 13]: 90; Blackgrass plant response rating ([2]; 500 g ai/ha): 90; Plant response rating, Galium [3, 13]: 100; Galium plant response rating ([3]; 500 g ai/ha): 100 |
| Cc1nn(C)c(=O)c(-c2c(C)sc3ccc(Br)cc23)c1O [Compound 22] | 10 | 0 | 0 | 0 | 0 | 90 | 95 | 98 | 90 | 90 | 95 | 95 | 95 | 40 | 80 | 80 | 50 |  |  |  | Plant response rating, Barnyardgrass [1, 9]: 30; Barnyardgrass plant response rating [1, 10]: 50; Plant response rating, Barnyardgrass [1, 12]: 70; Plant response rating, Blackgrass [2, 13]: 50; Blackgrass plant response rating ([2]; 500 g ai/ha): 70; Plant response rating, Galium [3, 13]: 90; Galium plant response rating ([3]; 500 g ai/ha): 100 |
| CCc1oc2ccc(C)cc2c1-c1c(O)c(C)nn(C)c1=O [Compound 10, 4-(2-ethyl-5-methyl-3-benzofuranyl)-5-hydroxy-2,6-dimethyl-3(2H)-pyridazinone] |  |  |  |  |  | 90 | 90 | 90 | 90 | 60 | 95 | 95 | 85 | 5 | 5 | 25 | 5 |  |  |  | pest or weed control at 1000 g/ha [1, 18]: 90%; pest or weed control at 1000 g/ha [1, 19]: 100%; pest or weed control at 250 g/ha [4]: 0%; pest or weed control at 250 g/ha [5]: 30%; plant injury at 250 g/ha (rice (Oryza sativa)): 0%; pest or weed control at 250 g/ha [6]: 0% |
| Cc1nn(C)c(=O)c(-c2cccc3ccccc23)c1O [Compound 11, 5-hydroxy-2,6-dimethyl-4-(1-naphthalenyl)-3(2H)-pyridazinone] |  |  |  |  |  | 60 | 85 | 90 | 65 | 85 | 100 | 100 | 95 | 40 | 60 | 70 | 45 |  |  |  | pest or weed control at 1000 g/ha [1, 18]: 80%; pest or weed control at 1000 g/ha [1, 19]: 90%; pest or weed control at 250 g/ha [4]: 0%; pest or weed control at 250 g/ha [5]: 0%; plant injury at 250 g/ha (rice (Oryza sativa)): 0%; pest or weed control at 250 g/ha [6]: 0% |
| COC(=O)Oc1c(C)nn(C)c(=O)c1-c1ccc(Br)c2ccccc12 [Compound 145] | 20 | 0 | 0 | 0 | 0 |  |  |  |  |  |  | 100 |  |  |  | 100 |  | 20 | 90 | 90 | Plant response rating, Blackgrass [2, 23]: 40; Plant response rating, Blackgrass [2, 24]: 80; Plant response rating, Galium [3, 23]: 100; Plant response rating, Galium [3, 24]: 100; Plant response rating, Kochia (kochia (Kochia scoparia); [25]): 95; Kochia plant response rating (kochia (Kochia scoparia); [26]): 98; Kochia plant response rating (kochia (Kochia scoparia); [27]): 100; Plant response rating, Oat, Wild [8, 25]: 95; Oat, Wild plant response rating [8, 26]: 95; Oat, Wild plant response rating [8, 27]: 95 |
| Cc1ccc2ccc(Cl)cc2c1-c1c(O)c(C)nn(C)c1=O [Compound 144] | 90 | 30 | 40 | 30 | 0 |  |  |  |  |  |  |  |  |  |  |  |  | 100 | 100 | 100 | Plant response rating, Blackgrass [2, 23]: 90; Plant response rating, Blackgrass [2, 24]: 100; Plant response rating, Galium [3, 23]: 100; Plant response rating, Galium [3, 24]: 100; Kochia plant response rating (kochia (Kochia scoparia); [28]): 90; Plant response rating, Kochia (kochia (Kochia scoparia); [28]): 90; Plant response rating, Kochia (kochia (Kochia scoparia); [29]): 98; Plant response rating, Kochia (kochia (Kochia scoparia); [25]): 98; Oat, Wild plant response rating [8, 28]: 80; Plant response rating, Oat, Wild [8, 28]: 90; Plant response rating, Oat, Wild [8, 29]: 90; Plant response rating, Oat, Wild [8, 25]: 90 |
| CCC(=O)Oc1c(C)nn(C)c(=O)c1-c1ccc(Br)c2ccccc12 [Compound 134] | 20 | 0 | 0 | 0 | 0 |  |  |  |  |  |  | 100 |  |  |  | 95 |  | 20 | 60 | 90 | Plant response rating, Blackgrass [2, 23]: 60; Plant response rating, Blackgrass [2, 24]: 70; Plant response rating, Galium [3, 23]: 100; Plant response rating, Galium [3, 24]: 100; Plant response rating, Kochia (kochia (Kochia scoparia); [25]): 95; Kochia plant response rating (kochia (Kochia scoparia); [26]): 100; Kochia plant response rating (kochia (Kochia scoparia); [27]): 100; Plant response rating, Oat, Wild [8, 25]: 90; Oat, Wild plant response rating [8, 26]: 90; Oat, Wild plant response rating [8, 27]: 95 |
